{"source": "patent US12440471B2", "about": "“Compositions and methods for the treatment of bronchopulmonary dysplasia (BPD) and BPD-associated pulmonary hypertension” (AyuVis Research, Inc., priority 2021, dated 2025)", "key": {"[1]": {"test_system": "hyperoxia-exposed BPD mouse model", "assay": "BPD mouse model: flow cytometry of lung immune cell populations", "format": "in vivo", "procedure": "AVR-48 normalizes two important innate immune cell populations in animals with BPD. Based on the affinity of AVR-48 for TLR4 and the increased TLR4 expression in AVR-48 treated BPD animals, the inventors determined if there would be an impact on immune cell recruitment to the lung interstitium. Flow cytometry was performed to determine absolute numbers of key immune cell populations in the lung of neonatal mice pups from AVIS-48-treated and untreated animals in the RA and BPD groups. […] All other cell populations were similar (FIG. 11)."}, "pre-term lamb BPD model [2]": {"test_system": "pre-term lamb BPD model", "assay": "Pre-term lamb BPD model: respiratory severity score", "format": "in vivo", "from_the_text": "A unique PT lamb model, developed by Dr. Albertine (University of Utah), was used to emulate the clinical setting for PT human infants with respiratory failure related to premature birth before the lungs are mature enough to support extra-uterine life. Both the PT lamb model and PT human infants are whole-organism physiological beings that have the setting of PT birth and prolonged ventilation support with oxygen-rich gas because of respiratory failure related to lung structural and functional immaturity, including surfactant deficiency. Ventilation support with oxygen-rich gas is for days, weeks, months, and is associated with co-morbidities of the brain, liver, distal ileum, and kidney injury, and inadequate nutrition and poor postnatal growth. This PT lamb model for BPD continues to provide mechanistic insights during the evolution of BPD (Joss-Moore, Metcalfe et al. 2010), development of multiple-organ dysfunction (Albertine 2012, Abdullah, Seidel et al. 2016), and long-term structural and functional impairments (Dahl, Bowen et al. 2018).\nA dose range-finding study was conducted with the goal of treating two PT lambs with either a vehicle control or low, mid, and high doses of AVR-48 (compound 8) by twice daily intravenous infusions during 6 to 7 days of mechanical ventilation, followed by transition to noninvasive respiratory support (NIS) for 3 days, for a total of 10 days of management of these PT lambs. Compound 8 was not given during the period of noninvasive respiratory support to assess short-term persistence of effect of compound 8. The PK and PD parameters for compound 8 were also determined.\nThe modified PT lamb model used 6 d to 7 d of mechanical ventilation for respiratory management to identify temporal pathogenesis of the disease. […]\nA total 9 lambs were used for this study. […] The PK parameters were calculated following both non-Compartmental Pharmacokinetic Modeling and population Pharmacokinetic Modeling as described by Roberts et al previously (Roberts, Stockmann et al. 2016). […] The blood samples also were analyzed for hematology and liver enzymes. […]"}, "pre-term lamb BPD model [3]": {"test_system": "pre-term lamb BPD model", "assay": "Pre-term lamb BPD model: lung histopathology and radial alveolar count", "format": "in vivo", "from_the_text": "Detailed methods have been published previously by Reyburn et al. and Null et al (Reyburn, Li et al. 2008, Null, Alvord et al. 2014), relevant portions incorporated herein by reference. All protocols have been adhered to APS/NIH guidelines for animal research and have been approved by the Institution Animal Care and Use Committees (IACUC) at the University of Utah. Lung injury in PT neonates, including PT lambs, that are mechanically ventilated (MV) is the classical picture of alveolar simplification. Alveolar simplification is evident as distended terminal respiratory units that have few secondary septa and thick, cellular mesenchyme.\nThe micrographs show terminal respiratory units (TRU) of the lung at the same magnification. […] Radial alveolar count is the number of tissue intersections across a terminal respiratory unit, from the center of the respiratory bronchiole to the perimeter of the terminal respiratory unit."}, "TLR4 [4]": {"molecular_target": "T1, TLR4 (Homo sapiens, UniProt O00206)", "T1 construct": "Cell lysates were prepared, total protein was quantified and treated with different concentrations; host or cells: THP-1 cells stimulated with PMA for 48 h, then lysed", "T1 sequence (O00206 24-839)": "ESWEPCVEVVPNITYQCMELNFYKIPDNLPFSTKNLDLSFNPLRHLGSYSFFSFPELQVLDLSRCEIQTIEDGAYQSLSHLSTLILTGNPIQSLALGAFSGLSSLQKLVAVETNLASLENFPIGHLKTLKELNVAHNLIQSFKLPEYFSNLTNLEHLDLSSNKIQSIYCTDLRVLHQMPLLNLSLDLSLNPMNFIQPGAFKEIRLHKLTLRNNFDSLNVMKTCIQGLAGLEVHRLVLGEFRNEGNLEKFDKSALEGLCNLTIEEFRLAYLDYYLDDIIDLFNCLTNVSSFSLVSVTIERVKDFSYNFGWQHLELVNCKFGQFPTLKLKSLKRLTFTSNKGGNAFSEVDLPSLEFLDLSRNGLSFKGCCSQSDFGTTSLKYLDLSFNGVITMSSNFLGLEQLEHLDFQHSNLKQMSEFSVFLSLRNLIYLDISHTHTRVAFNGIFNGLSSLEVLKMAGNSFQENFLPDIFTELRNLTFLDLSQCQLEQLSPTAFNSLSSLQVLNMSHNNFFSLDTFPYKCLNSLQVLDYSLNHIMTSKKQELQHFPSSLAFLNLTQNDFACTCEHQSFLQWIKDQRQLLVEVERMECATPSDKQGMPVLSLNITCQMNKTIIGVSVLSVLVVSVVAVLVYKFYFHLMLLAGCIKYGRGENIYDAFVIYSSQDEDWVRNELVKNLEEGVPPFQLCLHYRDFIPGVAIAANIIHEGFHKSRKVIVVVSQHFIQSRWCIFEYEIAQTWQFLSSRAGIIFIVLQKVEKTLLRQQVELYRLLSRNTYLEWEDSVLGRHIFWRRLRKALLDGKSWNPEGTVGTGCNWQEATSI", "assay": "TLR4 level in THP-1 human monocytic cells by ELISA", "format": "cell-based"}, "TLR4 [5]": {"molecular_target": "T1, TLR4", "assay": "TLR4 assay: unbound TLR4 ELISA in PMA-stimulated THP-1 cell lysates", "format": "binding", "conditions": "THP-1 human monocyte cells", "procedure": "FIG. 26A, TLR4 assay: 1×10^5 THP cells (ATCC) were seeded in 24 well plates and stimulated with phorbol myristyl actetate (PMA, 200 ng/mL) for 48 h. Cell lysates were prepared, total protein was quantified and treated with different concentrations (4, 16, 62.5 and 250 μM) of the AVR-48 for 2 h. ELISA was performed after to assess unbound TLR4 following manufacturer's instruction (Raybiotech). TLR4 IC50 of the AVR-48 was calculated using GraphPad Prism7.04."}, "[6]": {"test_system": "human lung alveolar type I epithelial cells (AT1)", "assay": "TNF-α and nitric oxide in human lung alveolar type I epithelial cells co-treated with LPS", "format": "cell-based"}, "[7]": {"conditions": "AVR-48-treated RA animals vs RA animals"}, "[8]": {"conditions": "treated vs untreated BPD animals, similar to RA control"}}}
{"smiles": "CC(=O)N[C@@H]1C(Oc2ccc([N+](=O)[O-])cc2)OC(CO)C(O)C1O", "note": "(stereo partly drawn) [AVR-48]", "values": [{"measurement": "all other immune cell populations in the lung", "setting": "[1]; [7]", "result": "similar"}, {"measurement": "dendritic cells in the lung", "setting": "[1]; [7]", "result": "increase"}, {"measurement": "macrophages in the lung", "setting": "[1]; [7]", "result": "slight, but statistically significant, decrease"}, {"measurement": "macrophages in the lung", "setting": "[1]; [8]", "result": "increased"}, {"measurement": "neutrophils in the lung", "setting": "[1]; [8]", "result": "decreased"}, {"measurement": "Respiratory Severity Score (RSS)", "setting": "pre-term lamb BPD model [2]; 3.0 mg/kg IV, n=4, lowest RSS", "result": 2.4}, {"measurement": "Respiratory Severity Score (RSS) vs placebo", "setting": "pre-term lamb BPD model [2]; 1.0 and 3.0 mg/kg IV, 2/d, 7 days", "result": "Significant improvement"}, {"measurement": "highest efficacious dose (RSS)", "setting": "pre-term lamb BPD model [2]; IV twice daily", "result": 3.0, "unit": "mg/kg"}, {"measurement": "radial alveolar count / alveoli formation", "setting": "pre-term lamb BPD model [3]; 3.0 mg/Kg, preliminary results", "result": "promotes alveoli formation"}, {"measurement": "alveolar simplification (lung histopathology)", "setting": "pre-term lamb BPD model [3]; vs vehicle treated PT lamb", "result": "significantly improved"}, {"measurement": "EC50, binding to monocytes/macrophages possibly via surface receptor TLR4", "setting": "TLR4 [4]", "result": "sub nanomolar"}, {"measurement": "DC50", "setting": "TLR4 [4]; THP-1 cells, after 48 h of treatment, ELISA, read-out: EC50, decrease of TLR4 level", "result": 76, "unit": "nM"}, {"measurement": "binding to TLR4", "setting": "TLR4 [5]", "result": "binds to TLR4"}, {"measurement": "binding to TLR4", "setting": "TLR4 [5]; listed as 8", "result": "bind TLR4"}, {"measurement": "nitric oxide (NO) production", "setting": "[6]; co-treated with LPS", "result": "decreased"}, {"measurement": "TNF-α production", "setting": "[6]; co-treated with LPS, ELISA", "result": "decreased"}, {"measurement": "IL-10 level", "setting": "[6]; epithelial cells", "result": "No significant level"}, {"measurement": "IL-β level", "setting": "[6]; epithelial cells", "result": "No significant level"}]}
